The nature of assay [1]: DRUGMATRIX: Tumor Necrosis Factor (TNF), Non-Selective radioligand binding (ligand: [125I] TNF-alpha). The conditions noted are these: u-937; Not Active = under 50% inhibition at 10 µM. The format is cell membranes, Membrane.
The target in assay [2] is Sodium-dependent noradrenaline transporter (Homo sapiens, UniProt P23975). Description: DRUGMATRIX: Norepinephrine Transporter radioligand binding (ligand: [125I] RTI-55). It counts as cell membranes, MDCK, Membrane. The conditions noted are these: Not Active = under 50% inhibition at 10 µM; for Ki: read-out: Ki.
The target in a further assay is Histamine H2 receptor (Homo sapiens, UniProt P25021). It counts as cell membranes, CHO-K1, Membrane. The conditions noted are these: cho-k1. Note: in other assays of this panel Not Active means under 50% inhibition at 10 µM.
In assay [3] the target is T1, 5-hydroxytryptamine receptor 2C (Homo sapiens, UniProt P28335).
T1 sequence (P28335 whole entry): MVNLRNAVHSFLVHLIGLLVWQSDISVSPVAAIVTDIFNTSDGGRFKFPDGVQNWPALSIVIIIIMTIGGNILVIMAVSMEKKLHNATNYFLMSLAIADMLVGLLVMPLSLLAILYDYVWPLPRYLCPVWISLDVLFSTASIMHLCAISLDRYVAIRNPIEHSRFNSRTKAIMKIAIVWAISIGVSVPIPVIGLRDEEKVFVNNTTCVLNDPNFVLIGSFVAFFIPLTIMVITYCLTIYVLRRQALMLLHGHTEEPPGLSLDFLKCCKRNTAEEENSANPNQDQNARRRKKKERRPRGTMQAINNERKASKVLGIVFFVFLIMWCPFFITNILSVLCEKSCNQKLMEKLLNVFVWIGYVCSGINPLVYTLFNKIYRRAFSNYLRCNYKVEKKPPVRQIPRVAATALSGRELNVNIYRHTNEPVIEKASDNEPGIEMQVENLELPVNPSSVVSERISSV
Description: DRUGMATRIX: Serotonin (5-Hydroxytryptamine) 5-HT2C radioligand binding (ligand: [3H] Mesulergine). The format is cell membranes, CHO-K1, Membrane. The conditions noted are these: Not Active = under 50% inhibition at 10 µM; for Ki: read-out: Ki.

Assay [4] addresses T2, 5-hydroxytryptamine receptor 1A (Rattus norvegicus, UniProt P19327).
T2 sequence (P19327 whole entry): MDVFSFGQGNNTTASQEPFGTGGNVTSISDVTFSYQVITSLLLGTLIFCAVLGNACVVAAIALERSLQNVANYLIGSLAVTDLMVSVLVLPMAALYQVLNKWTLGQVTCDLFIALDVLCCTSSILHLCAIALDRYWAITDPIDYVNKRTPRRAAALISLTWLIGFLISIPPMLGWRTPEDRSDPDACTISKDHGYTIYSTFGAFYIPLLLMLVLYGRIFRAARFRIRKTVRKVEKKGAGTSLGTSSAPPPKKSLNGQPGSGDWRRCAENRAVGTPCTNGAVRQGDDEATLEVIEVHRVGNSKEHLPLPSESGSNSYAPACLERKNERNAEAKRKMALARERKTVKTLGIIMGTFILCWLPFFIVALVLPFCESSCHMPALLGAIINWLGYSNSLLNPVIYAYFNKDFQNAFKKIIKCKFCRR
The format is cell membranes, CHO-K1, Membrane.

The target of assay [5] is Mitogen-activated protein kinase 1 (Homo sapiens, UniProt P28482). Description: DRUGMATRIX: Protein Serine/Threonine Kinase, ERK2 enzyme inhibition (substrate: Myelin Basic Protein). Also on record: species or system Escherichia coli. Conditions: Not Active = under 50% inhibition at 10 µM.

The results in this text go back to ChEMBL document CHEMBL1909046, “DrugMatrix in vitro pharmacology data”.

Chain of Sodium-dependent noradrenaline transporter (P23975 whole entry): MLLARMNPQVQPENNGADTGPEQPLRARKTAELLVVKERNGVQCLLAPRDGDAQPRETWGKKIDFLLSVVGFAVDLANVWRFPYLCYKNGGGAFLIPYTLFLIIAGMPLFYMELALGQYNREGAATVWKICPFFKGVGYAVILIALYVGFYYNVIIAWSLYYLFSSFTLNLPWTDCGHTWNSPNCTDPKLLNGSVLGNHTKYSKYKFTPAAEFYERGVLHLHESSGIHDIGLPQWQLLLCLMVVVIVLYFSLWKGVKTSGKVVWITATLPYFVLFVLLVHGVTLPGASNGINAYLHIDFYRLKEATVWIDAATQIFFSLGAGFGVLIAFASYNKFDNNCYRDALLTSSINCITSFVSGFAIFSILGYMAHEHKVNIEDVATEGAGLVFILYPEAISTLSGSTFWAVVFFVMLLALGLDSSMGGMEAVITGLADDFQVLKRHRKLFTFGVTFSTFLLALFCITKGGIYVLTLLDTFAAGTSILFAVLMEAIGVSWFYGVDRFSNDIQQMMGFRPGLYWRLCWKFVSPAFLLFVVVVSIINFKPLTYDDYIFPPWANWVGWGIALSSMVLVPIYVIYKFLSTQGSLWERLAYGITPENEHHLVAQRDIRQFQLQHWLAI
Chain of Histamine H2 receptor (P25021 whole entry): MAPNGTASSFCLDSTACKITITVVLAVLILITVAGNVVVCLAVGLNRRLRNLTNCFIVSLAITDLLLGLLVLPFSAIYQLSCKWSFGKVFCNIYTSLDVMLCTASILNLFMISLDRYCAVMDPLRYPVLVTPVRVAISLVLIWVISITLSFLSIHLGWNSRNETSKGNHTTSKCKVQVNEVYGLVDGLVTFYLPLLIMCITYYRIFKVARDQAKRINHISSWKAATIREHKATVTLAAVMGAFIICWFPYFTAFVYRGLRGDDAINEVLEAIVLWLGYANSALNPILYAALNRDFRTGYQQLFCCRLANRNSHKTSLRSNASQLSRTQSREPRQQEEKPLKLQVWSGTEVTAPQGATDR
Chain of Mitogen-activated protein kinase 1 (P28482 whole entry): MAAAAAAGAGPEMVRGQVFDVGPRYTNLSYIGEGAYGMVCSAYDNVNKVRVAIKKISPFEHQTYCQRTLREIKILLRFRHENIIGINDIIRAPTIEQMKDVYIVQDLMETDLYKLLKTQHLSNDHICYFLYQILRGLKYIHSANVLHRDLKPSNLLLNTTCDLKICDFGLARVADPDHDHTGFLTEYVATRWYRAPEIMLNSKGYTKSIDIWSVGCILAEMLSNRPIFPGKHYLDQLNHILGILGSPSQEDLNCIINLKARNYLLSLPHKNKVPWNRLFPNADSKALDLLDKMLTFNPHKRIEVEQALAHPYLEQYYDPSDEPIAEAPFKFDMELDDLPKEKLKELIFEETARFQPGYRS

Broadly, the IC50 is the midpoint of a concentration-inhibition curve. Usually Ki stands for a dissociation constant, usually derived from enzyme kinetics or from competition with a known ligand. For the molecule `CCOc1nc2cccc(C(=O)O)c2n1Cc1ccc(-c2ccccc2-c2nnn[nH]2)cc1`, the half-maximal inhibitory concentration (IC50) entry in assay [1] was “Not Active”; in assay [2] (read-out: IC50) it was 3070 nM; on Histamine H2 receptor, “Not Active”; in assay [3] (cho-k1), “Not Active”; in assay [4] (cho-k1), “Not Active”; in assay [5] it was “Not Active”. The Ki result in assay [1] is “Not Active”; in assay [2] it was 3040 nM.
`O=C(O)CCCc1cccs1`: the IC50 result (in assay [1]; in assay [2] (mdck); against Histamine H2 receptor; in assay [3] (cho-k1); in assay [4] (cho-k1); in assay [5]) was “Not Active” each time. Moreover, the inhibitory constant (Ki) entry in assay [1] was “Not Active”.
Take `COc1ccccc1N`: the IC50 result (in assay [1]; in assay [2] (mdck); against Histamine H2 receptor; in assay [3] (cho-k1); in assay [4] (cho-k1); in assay [5]) was “Not Active” each time. Also, the Ki entry in assay [1] is on record as “Not Active”.
`O=C(c1ccccc1F)N1CCC(Cc2ccccc2)CC1`: the half-maximal inhibitory concentration (IC50) entry (in assay [1]; in assay [2] (mdck); against Histamine H2 receptor; in assay [3] (cho-k1); in assay [4] (cho-k1); in assay [5]) was “Not Active” throughout. Also, the inhibition constant (Ki) entry in assay [1] is “Not Active”.
Regarding `Cc1c(O)cccc1C(=O)N[C@@H](CSc1ccccc1)[C@H](O)CN1C[C@H]2CCCC[C@H]2C[C@H]1C(=O)NC(C)(C)C`, the half-maximal inhibitory concentration (IC50) result in assay [1] is “Not Active”; in assay [2] (read-out: IC50), 8850 nM; against Histamine H2 receptor, “Not Active”; in assay [3] (cho-k1), “Not Active”; in assay [4] (cho-k1), “Not Active”; in assay [5] it was “Not Active”. For the same molecule, the inhibition constant Ki entry in assay [1] was “Not Active”; in assay [2], 8780 nM.
On to `CC(O)COC[C@H]1O[C@@H]2O[C@H]3[C@H](O)[C@@H](O)[C@@H](O[C@H]4[C@H](O)[C@@H](O)[C@@H](O[C@H]5[C@H](O)[C@@H](O)[C@@H](O[C@H]6[C@H](O)[C@@H](O)[C@@H](O[C@H]7[C@H](O)[C@@H](O)[C@@H](O[C@H]8[C@H](O)[C@@H](O)[C@@H](O[C@H]1[C@H](O)[C@H]2O)O[C@@H]8COCC(C)O)O[C@@H]7COCC(C)O)O[C@@H]6COCC(C)O)O[C@@H]5COCC(C)O)O[C@@H]4COCC(C)O)O[C@@H]3COCC(C)O` (stereo partly drawn) [2-HYDROXYPROPYL-BETA-CYCLODEXTRIN], for which the IC50 result is “Not Active” in assay [1]; 1270 nM in assay [2] (read-out: IC50); “Not Active” at Histamine H2 receptor; 1590 nM in assay [3] (read-out: IC50); “Not Active” in assay [4] (cho-k1); “Not Active” in assay [5]. For the same molecule, the Ki result in assay [1] was “Not Active”; in assay [2], 1260 nM; in assay [3] it was 833 nM.
With `NC(=O)c1cccc(N)c1` [3-AMINOBENZAMIDE], the half-maximal inhibitory concentration (IC50) entry (in assay [1]; in assay [2] (mdck); at Histamine H2 receptor; in assay [3] (cho-k1); in assay [4] (cho-k1); in assay [5]) was “Not Active” in each case. Also, in assay [1], the inhibition constant (Ki) entry is listed as “Not Active”.
Regarding `C[C@H]1O[C@H](O[C@H]2[C@H](O)[C@@H](O)[C@@H](O[C@H]3[C@H](O)[C@@H](O)C(O)O[C@@H]3CO)O[C@@H]2CO)[C@H](O)[C@@H](O)[C@@H]1N[C@H]1C=C(CO)[C@@H](O)[C@H](O)[C@H]1O` (some centres not stated) [ACARBOSE], the IC50 entry (in assay [1]; in assay [2] (mdck); against Histamine H2 receptor; in assay [3] (cho-k1); in assay [4] (cho-k1); in assay [5]) was “Not Active” each time. The inhibitory constant (Ki) result in assay [1] is “Not Active”.
On to `CC[C@H]1[C@@H]2C[C@H]3[C@@H]4N(C)c5ccccc5[C@]45C[C@@H]([C@@H]2[C@H]5O)N3[C@@H]1O` [AJMALINE], for which the IC50 entry (in assay [1]; in assay [2] (mdck); against Histamine H2 receptor; in assay [3] (cho-k1); in assay [4] (cho-k1); in assay [5]) was “Not Active” throughout. Further, the Ki entry in assay [1] is on record as “Not Active”.
As to `NC12CC3CC(CC(C3)C1)C2` [AMANTADINE], the half-maximal inhibitory concentration (IC50) entry (in assay [1]; in assay [2] (mdck); at Histamine H2 receptor; in assay [3] (cho-k1); in assay [4] (cho-k1); in assay [5]) was “Not Active” throughout. Moreover, in assay [1], the inhibitory constant (Ki) entry is on record as “Not Active”.
For the molecule `NCCCNCCSP(=O)(O)O` [AMIFOSTINE], the IC50 entry (in assay [1]; in assay [2] (mdck); against Histamine H2 receptor; in assay [3] (cho-k1); in assay [4] (cho-k1); in assay [5]) was “Not Active” each time. In addition, the inhibition constant Ki result in assay [1] was “Not Active”.
`CN(C)CCC=C1c2ccccc2CCc2ccccc21` [AMITRIPTYLINE]: the half-maximal inhibitory concentration (IC50) entry in assay [1] was “Not Active”; in assay [3] (read-out: IC50), 6.05 nM; in assay [4] (read-out: IC50), 2000 nM; in assay [5], “Not Active”. For the same molecule, the figures for the Ki entry in assay [1], in assay [3] and in assay [4] (read-out: Ki) were “Not Active”, 3.17 nM and 1140 nM, respectively.
`CC(=O)Oc1ccccc1C(=O)O` [ASPIRIN]: the IC50 entry (in assay [1]; in assay [2] (mdck); at Histamine H2 receptor; in assay [3] (cho-k1); in assay [4] (cho-k1); in assay [5]) was “Not Active” throughout. Moreover, the Ki result in assay [1] was “Not Active”.
On to `CC(C)c1c(C(=O)Nc2ccccc2)c(-c2ccccc2)c(-c2ccc(F)cc2)n1CC[C@@H](O)C[C@@H](O)CC(=O)O` [ATORVASTATIN], for which the IC50 entry (in assay [1]; in assay [2] (mdck); against Histamine H2 receptor; in assay [3] (cho-k1); in assay [4] (cho-k1); in assay [5]) was “Not Active” in each case. Also, in assay [1], the Ki entry is given as “Not Active”.
Take `CC(=O)OC[C@H]1O[C@@H](n2ncc(=O)[nH]c2=O)[C@H](OC(C)=O)[C@@H]1OC(C)=O` [AZARIBINE]: the concentration for half-maximal inhibition (IC50) entry (in assay [1]; in assay [2] (mdck); at Histamine H2 receptor; in assay [3] (cho-k1); in assay [4] (cho-k1); in assay [5]) was “Not Active” in each case. Further, the Ki entry in assay [1] is given as “Not Active”.
As to `CO/N=C(\C(=O)N[C@@H]1C(=O)N2C(C(=O)O)=C(COC(C)=O)CS[C@H]12)c1csc(N)n1` [CEFOTAXIME], the IC50 entry (in assay [1]; in assay [2] (mdck); against Histamine H2 receptor; in assay [3] (cho-k1); in assay [4] (cho-k1)) was “Not Active” in each case. For the same molecule, the inhibitory constant (Ki) result in assay [1] is on record as “Not Active”.
In the case of `C[C@H]1COc2c(N3CCN(C)CC3)c(F)cc3c(=O)c(C(=O)O)cn1c23.C[C@H]1COc2c(N3CCN(C)CC3)c(F)cc3c(=O)c(C(=O)O)cn1c23.O` [LEVOFLOXACIN], the IC50 result (in assay [1]; against Histamine H2 receptor; in assay [3] (cho-k1); in assay [4] (cho-k1); in assay [5]) was “Not Active” each time. Besides, the Ki result in assay [1] is recorded as “Not Active”.
Turning to `C[C@@H]1O[C@@H](O[C@H]2C[C@@H](O)[C@]3(CO)[C@H]4[C@H](O)C[C@]5(C)[C@@H](C6=CC(=O)OC6)CC[C@]5(O)[C@@H]4CC[C@]3(O)C2)[C@H](O)[C@H](O)[C@H]1O` [OUABAIN], the IC50 result (in assay [1]; at Histamine H2 receptor; in assay [3] (cho-k1); in assay [4] (cho-k1); in assay [5]) was “Not Active” throughout. Further, in assay [1], the Ki result is on record as “Not Active”.
